Counter-ions that a name gives are not always drawn.
Tested on: BACE1 proteins
Test: Amount of expression of BACE1 proteins in brain nerve cells (Western blot)
Type: cell-based, human
Settings: SH-SY5Y cells, treated 24 hours at 0.001, 0.01 and 0.1 μM, actin control
Procedure: As brain nerve cells, human neuroblastoma cells SH-SY5Y were used. […] The SH-SY5Y cells were plated at 5×10^5 cells/well into a 6-well plate. […] Then, the amount of expression of BACE1 proteins was determined by Western blot. Actin was used throughout as a control.

| SMILES | amount of expression of BACE1 proteins |
| --- | --- |
| CC(C)=CCC/C(C)=C/CC/C(C)=C/CO [farnesol] | decreased at 0.01 μM and 0.1 μM |

Same assay, conditions: SH-SY5Y cells, treated 24 hours at 0.625, 1.25, 2.5, 5 and 10 μM, actin control

| SMILES | amount of expression of BACE1 proteins |
| --- | --- |
| COC(=O)Nc1nc2cc(Sc3ccccc3)ccc2[nH]1 [fenbendazole] | decreased at 0.625 μM to 10 μM |
| COC(=O)Nc1nc2cc(C(=O)c3ccccc3)ccc2[nH]1 [mebendazole] | decreased at 0.625 μM to 10 μM |

Tested on: BACE1 promoter
Test: BACE1 promoter activity, BACE1 promoter-luciferase vector, Dual-Luciferase assay
Type: cell-based
Settings: Homo sapiens, SH-SY5Y, 24 h, read-out: decrease of BACE1 promoter activity
Procedure: A BACE1 promoter-luciferase vector was transfected to brain nerve cells (SH-SY5Y). […] A change in a BACE1 promoter activity was measured using a Dual-Luciferase assay kit.

| SMILES | inhibition at 10 µM [%] |
| --- | --- |
| COc1cc2c(c(OC)c1OC)-c1ccc(OC)c(=O)cc1[C@@H](NC(C)=O)CC2 [colchicine] | ≥ 50 |
| COc1ccc2c(c1)[nH]c1c(C)nccc12 [harmine hydrochloride] | ≥ 50 |
| C=C(NC(=O)C(=C)NC(=O)c1csc(C2=N[C@@H]3c4csc(n4)[C@H]4NC(=O)c5csc(n5)[C@H]([C@](C)(O)[C@@H](C)O)NC(=O)[C@H]5CSC(=N5)/C(=C/C)NC(=O)[C@H]([C@@H](C)O)NC(=O)c5csc(n5)[C@]3(CC2)NC(=O)[C@H](C)NC(=O)C(=C)NC(=O)[C@H](C)NC(=O)[C@H]([C@@H](C)CC)N[C@@H]2C=Cc3c([C@H](C)O)cc(nc3[C@H]2O)C(=O)O[C@@H]4C)n1)C(N)=O [thiostrepton] | ≥ 50 |

Same assay, conditions: Homo sapiens; SH-SY5Y transfected with BACE1 promoter-luciferase vector, 10 μM for 24 hours; read-out: decrease of BACE1 promoter activity

| SMILES | inhibition at 10 µM [%] |
| --- | --- |
| Clc1cnccn1 [2-chloropyrazine] | ≥ 50 |
| Cn1cnc([N+](=O)[O-])c1Sc1ncnc2nc[nH]c12 [azathioprine] | ≥ 50 |
| O=C1Nc2ccc(Cl)cc2[C@@](C#CC2CC2)(C(F)(F)F)O1 [efavirenz] | ≥ 50 |
| CCN(CC)C(=O)/C(C#N)=C/c1cc(O)c(O)c([N+](=O)[O-])c1 [entacapone] | ≥ 50 |
| CC(C)=CCC/C(C)=C/CC/C(C)=C/CO [farnesol] | ≥ 50 |
| COC(=O)Nc1nc2cc(Sc3ccccc3)ccc2[nH]1 [fenbendazole] | ≥ 50 |
| CC1(C)O[C@@H]2C[C@H]3[C@@H]4C[C@H](F)C5=CC(=O)C=C[C@]5(C)[C@H]4[C@@H](O)C[C@]3(C)[C@]2(C(=O)CO)O1 [flunisolide] | ≥ 50 |
| CC[C@H](c1ccc(O)cc1)[C@@H](CC)c1ccc(O)cc1 [hexestrol] | ≥ 50 |
| COC(=O)Nc1nc2cc(C(=O)c3ccccc3)ccc2[nH]1 [mebendazole] | ≥ 50 |
| CCN(CCCCOC(=O)c1ccc(OC)c(OC)c1)C(C)Cc1ccc(OC)cc1 (stereo not drawn) [mebeverine hydrochloride] | ≥ 50 |
| CC[C@@]1([C@@H]2O[C@@H]([C@H]3O[C@@](O)(CO)[C@H](C)C[C@@H]3C)C[C@@H]2C)CC[C@H]([C@]2(C)CC[C@]3(C[C@H](O)[C@@H](C)[C@@H]([C@@H](C)[C@@H](OC)[C@H](C)C(=O)O)O3)O2)O1 [monensin sodium salt] | ≥ 50 |
| CCCN(CCC)S(=O)(=O)c1ccc(C(=O)O)cc1 [probenecid] | ≥ 50 |
| O=C(c1ccc(OCCN2CCCCC2)cc1)c1c(-c2ccc(O)cc2)sc2cc(O)ccc12 [raloxifene hydrochloride] | ≥ 50 |
| Nc1ccc(S(=O)(=O)Nc2cnc3ccccc3n2)cc1 [sulfaquinoxaline sodium salt] | ≥ 50 |
| CC[C@@]1(O)C(=O)OCc2c1cc1n(c2=O)Cc2cc3c(CN(C)C)c(O)ccc3nc2-1 [topotecan] | ≥ 50 |
| NC1CCN(c2nc3c(cc2F)c(=O)c(C(=O)O)cn3-c2ccc(F)cc2F)C1 (stereo not drawn) [tosufloxacin hydrochloride] | ≥ 50 |
| COc1cc(C(=O)NCc2ccc(OCCN(C)C)cc2)cc(OC)c1OC [trimethobenzamide hydrochloride] | ≥ 50 |
| CCCOc1ccccc1-c1nc2nn[nH]c2c(=O)[nH]1 [zaprinast] | ≥ 50 |

From patent publication US9549942B2, “Composition for preventing or treating degenerative brain diseases including compound downregulating expression of BACE1 proteins” (RESEARCH & BUSINESS FOUNDATION SUNGKYUNKWAN UNIVERSITY, priority 2013, dated 2017)
